Data as given in patent publication US6429204B1, “Method of inhibiting cancer growth” (University of Miami, priority 1997, dated 2002).

Legend:
[1] = tested on: DU-145 and TSU-PR1 prostate cancer cell lines; test: Prostate cancer cell viability/proliferation (trypan blue, MTT); format: cell-based, human; details: exposure time not stated (24 hr or 48 hr)
Text: To determine the cytotoxicity of CMTs on prostate tumor cell lines, TSU-PR1 cells (and cells of other tumor cell lines) were exposed to various CMTs or to doxycycline for 24 hr or 48 hr in a complete medium. Cell viability (percent of live cells) was estimated by counting the cells following trypan blue staining. Cellular viability was also estimated by the tetrazolium dye reduction assay (MTT assay) (Lokeshwar et al. 1995b). Due to the aggressive proliferative capacity of cancer cells, it is assumed that viable cells are actively proliferating. Therefore, the measurement of viability was used as an estimate of proliferation. Results are expressed as Mean±SEM from three separate experiments.

Dunning MAT LyLu cells [2] = test: Cytotoxic effect on MAT LyLu cells (trypan blue); format: cell-based, rat; details: 24 hr or 48 hr exposure
Procedure: Cell viability was estimated by trypan blue staining following exposure to the drugs. The results of these studies are summarized in FIG. 4A (24 hours) and FIG. 4B (48 hr). Data are presented as Mean±SEM from three separate experiments.

Dunning MAT LyLu cells [3] = test: Matrigel invasion assay (Boyden chamber, MTT), MAT LyLu; format: cell-based, rat; details: MAT LyLu, 5 μg/mL, 48 hr
Procedure: In this method, 4×10^5 tumor cells were plated on the top chamber of the Boyden chemotaxis assay chambers (Costar Transwell plates). The bottom side of the chamber was a 12 μm-pore polycarbonate filter layered with 0.5 mm thick layer of Matrigel. The bottom well contained a chemoattractant, a serum-free culture-conditioned medium from FHS 733 cells, a line of human fetal lung fibroblasts (ATCC No. HTB-157). Cancer cells (4×10^5) were plated in the top wells of the plates. Doxycycline or CMTs were diluted in a serum-free medium to 5 μg/mL, and were added to both top and bottom chambers. […] After 48 hr incubation, MTT was added to both the top and bottom wells (0.5 mg/mL), and incubation was continued for 4 hr. Wells were then emptied, and the cells from the undersides of the filter were pooled with those in the bottom wells with a filter tip. The reduced MTT (formazan) from top and bottom wells was solubilized with DMSO overnight, and absorbance (O.D.) at 515 nm was measured. The ratio of the O.D. from the bottom wells to that of the total (i.e., O.D. of top plus bottom wells) was taken as the invasive potential. […] The MTT assay procedure also normalizes the coincident inhibition due to the cytotoxic effects of the agents under investigation. Results presented are from three independent experiments.

Gelatinase A = target: T1, Gelatinase A (Homo sapiens, UniProt P08253); test: Zymography with densitometry of C8161 conditioned medium, gelatinase A; format: cell-based; details: 50 μg/mL, 24 hr
T1 construct: endogenous in cells; host or cells: C8161
T1 sequence (P08253 110-660): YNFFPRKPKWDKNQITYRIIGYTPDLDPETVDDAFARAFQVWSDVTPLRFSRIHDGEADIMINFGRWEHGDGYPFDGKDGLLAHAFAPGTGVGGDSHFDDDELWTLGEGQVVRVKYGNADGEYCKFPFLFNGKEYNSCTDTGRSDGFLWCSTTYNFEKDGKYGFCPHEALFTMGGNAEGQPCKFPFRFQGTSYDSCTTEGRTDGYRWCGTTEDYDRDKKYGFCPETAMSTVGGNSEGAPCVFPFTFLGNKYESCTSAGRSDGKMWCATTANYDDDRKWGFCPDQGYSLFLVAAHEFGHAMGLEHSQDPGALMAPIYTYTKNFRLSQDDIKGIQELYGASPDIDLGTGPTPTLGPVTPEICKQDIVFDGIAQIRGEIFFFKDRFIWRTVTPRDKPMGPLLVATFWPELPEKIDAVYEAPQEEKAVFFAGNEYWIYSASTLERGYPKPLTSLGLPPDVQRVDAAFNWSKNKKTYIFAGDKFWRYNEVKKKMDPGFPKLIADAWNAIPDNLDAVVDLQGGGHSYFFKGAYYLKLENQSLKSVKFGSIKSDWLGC
Procedure: (§1) Six hundred thousand (6×10^5) C8161 cells were seeded per well in a 12-well dish coated with a laminin/collagen IV/gelatin matrix in DMEM plus Mito+ and 0.1% gentamicin sulfate. After approximately 1 hr incubation to allow the cells to attach, 50 μg/mL of either doxycycline or one of the other CMTs was added per well and the dish then placed in a 37° C. humidified 5% CO2 incubator. After 24 hr, the supernatants were removed and centrifuged to remove any cells or debris. One volume of Laemmli sample buffer minus reductant was added to two volumes of the medium, and this sample electrophoresed without prior heating or boiling on a 10% SDS-PAGE containing 0.1% gelatin (samples normalized based on the same number of cells per volume of medium per time of incubation). After electrophoresis, the gels were washed with gentle shaking at room temperature for 30 min in 50 mM Tris-HCl (pH 7.5) plus 2.5% TRITON® X100 plus 50 μg/mL of the corresponding CMT used in the original treatment. The gel was then placed in incubation buffer (50 mM Tris-Cl/10 mM CaCl2/150 mM NaCl/0.05% NaN3) also containing 50 μg/mL of the corresponding CMT, and incubated at 37° C. for 20-24 hr. The gels were stained with Coomassie BBR-250, then destained with 10% methanol/10% acetic acid in water until the wash remained clear. A photographic negative of the gel was digitized using a video camera and Snappy Video Snapshot system (Play Inc., Rancho Cordova, Calif.). An integrated density was determined for each of the cleared zones of proteolysis using the software ImagePC8α (freely available from the National Institutes of Health), and the corresponding changes in gelatinolytic activities reported compared to the control samples normalized to a value of 1.0.

Gelatinase B = target: T2, Gelatinase B (Homo sapiens, UniProt P14780); test: Zymography with densitometry of C8161 conditioned medium, gelatinase B; format: cell-based; details: 50 μg/mL, 24 hr
T2 construct: endogenous in cells; host or cells: C8161
T2 sequence (P14780 94-707): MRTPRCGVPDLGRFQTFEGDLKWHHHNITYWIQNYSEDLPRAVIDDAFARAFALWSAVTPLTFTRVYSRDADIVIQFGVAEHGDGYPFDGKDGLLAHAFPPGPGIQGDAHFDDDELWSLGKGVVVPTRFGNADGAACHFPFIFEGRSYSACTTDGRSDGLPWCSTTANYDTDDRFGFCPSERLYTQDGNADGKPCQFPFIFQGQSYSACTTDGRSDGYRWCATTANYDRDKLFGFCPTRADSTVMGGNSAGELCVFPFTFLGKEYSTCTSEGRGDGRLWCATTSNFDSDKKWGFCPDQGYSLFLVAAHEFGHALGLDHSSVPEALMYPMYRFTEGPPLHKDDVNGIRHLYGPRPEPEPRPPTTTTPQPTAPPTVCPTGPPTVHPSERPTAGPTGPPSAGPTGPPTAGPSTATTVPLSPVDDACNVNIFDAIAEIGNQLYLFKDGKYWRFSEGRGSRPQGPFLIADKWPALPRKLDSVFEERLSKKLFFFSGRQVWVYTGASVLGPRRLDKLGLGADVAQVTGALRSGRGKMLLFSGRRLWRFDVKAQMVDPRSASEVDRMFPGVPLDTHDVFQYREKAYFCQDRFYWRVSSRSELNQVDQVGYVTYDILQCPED
Procedure: as §1

[4] = tested on: C8161 human melanoma cells; test: In vitro invasion assay (MICS), laminin/collagen IV/gelatin matrix-coated filter; format: cell-based; details: 3, 20 and 50 μg/mL; for Percent Inhibition of invasive potential: 48 hr
Procedure: The in vitro invasive potentials of the control (DMSO only) and chemically-modified tetracycline treated cells were measured using a modified Boyden chamber as previously described (Membrane Invasion Culture System, MICS). An intervening barrier consisting of a polycarbonate filter containing 10 μm pores (Osmonics, Livermore, Calif.) coated with a defined matrix of human laminin/collagen IV/gelatin (Sigma, St. Louis, Mo.) was used for these studies. […] Doxycycline or individual CMTs were then added to different wells of the chamber at 3, 20 or 50 μg/mL 2 hr post-seeding and daily during the assay. After 48 hr, the cells were removed from the lower wells and the number of invasive cells was determined and compared to the original number of cells seeded into the upper wells. Where appropriate, data were corrected for proliferation during the period of the in vitro assay.

[5] = Blood levels after oral gavage of adult rats
Text: In the treatment of certain localized cancers, the degree of hydrophilicity of the non-antimicrobial tetracycline compound can be of lesser importance.

[6] = Solubility in aqueous systems; format: physicochemical
E-10 Cells = test: MTS cytotoxicity assay, E-10; details: two days
Procedure: (§2) A panel of chemically modified tetracycline compounds and doxycycline were tested for cytotoxicity against two carcinomas: COLO 205 (a human colon carcinoma-derived cell line) and the E-10 clone of MDA-MB-231 (a human breast carcinoma-derived cell line). Cytoxicity was measured using a conventional assay for viability with a tetrazolium salt (MTS). Cells were grown in media containing the CMTs at concentrations ranging from 5 μM to 100 μM for two days. The cells were then incubated with the MTS for several hours before removal of the supernatant medium for determination of formazan, which is generated only by the viable cells. Results are expressed as percent cytotoxicity, which is simply the percent decline in measured formazan concentration in the sampled medium.

COLO 205 Cells = test: MTS cytotoxicity assay, COLO 205; details: two days
Procedure: as §2

C8161 cells = test: C8161 cell proliferation (doubling time); format: cell-based, human; details: 50 μg/mL
Procedure: Cell Culture and Maintenance: C8161 cells, a human melanoma cell line, were maintained in Dulbecco's modified Eagle's medium (DMEM; […] These cells were routinely screened for Mycoplasma contamination using the GenProbe Rapid Detection System (Fisher Scientific; Chicago, Ill.). Chemically Modified Tetracyclines: Fresh stock solutions of the chemically modified tetracycline compounds (2 mg/mL) were prepared for each experiment by hydrating in 2% dimethyl sulfoxide (DMSO)/water pH 10, then adjusting to pH 7.4 using 1.0 M HCl. […] Sigma Chem. Co.; control) or 50 μg/mL of doxycycline or the other CMTs (three wells on each plate per compound). […] The doubling time for C8161 cells in the presence of each compound was then determined and compared to the DMSO treated cells (control).

SMILES | 50% inhibition dose (IC50), cell proliferation [1] [µg/mL] | Gelatinase A, integrated density normalized to control 1.00 (Gelatinase A) | Gelatinase B, integrated density normalized to control 1.00 (Gelatinase B) | Type of Inhibition [4] | Percent Inhibition of invasive potential [4] | percent cytotoxicity (E-10 Cells; 5 μM) [%] | percent cytotoxicity (E-10 Cells; 10 μM) [%] | percent cytotoxicity (E-10 Cells; 20 μM) [%] | percent cytotoxicity (E-10 Cells; 50 μM) [%] | percent cytotoxicity (E-10 Cells; 100 μM) [%] | percent cytotoxicity (COLO 205 Cells; 5 μM) [%] | percent cytotoxicity (COLO 205 Cells; 10 μM) [%] | percent cytotoxicity (COLO 205 Cells; 20 μM) [%] | percent cytotoxicity (COLO 205 Cells; 50 μM) [%] | percent cytotoxicity (COLO 205 Cells; 100 μM) [%] | further results
CN(C)C1C(=O)C(C#N)=C(O)C2(O)C(=O)C3=C(O)c4c(O)cccc4C(C)(O)C3CC12 (stereo not shown) [CMT-2, tetracyclinonitrile] | 5.7 | 0.89 | 1.51 | non-dose | ˜10% | 1.5 | 3.8 | 0.8 | 0 | 2.3 | 2.7 | 4.5 | 0 | 7 | 16.3 | inhibition of cell proliferation (rank among tested drugs) (Dunning MAT LyLu cells [2]): most effective inhibitors of cell proliferation; inhibition of invasive/metastatic potential (Matrigel invasion) (Dunning MAT LyLu cells [3]): equally inhibited; blood levels ([5]; rat, in vivo, po): no detectable blood levels; solubility in aqueous systems [6]: low solubility in aqueous systems
CC1(O)c2cccc(O)c2C(=O)C2=C(O)C3(O)C(=O)C(C(N)=O)=C(O)C(O)C3CC21 (stereo not shown) [CMT-6, 4-hydroxy-4-de(dimethylamino)tetracycline] | 120 | 0.07 | 0.51 | dose dependent | 8-50% | 0 | 6 | 3 | 7.6 | 16.7 | 1.7 | 0 | 0 | 0 | 22.2 | Doubling Time (C8161 cells; on plastic, DMSO 22 hr): 24 h; increase of doubling time (C8161 cells; versus DMSO): approximately 9%; blood levels ([5]; adult rats, oral gavage): no detectable blood levels
